Series [1] relates to AR protein. As to the kind of experiment: Western blotting analysis of AR protein levels in 22RV1 cells, band quantification, DC50/DC90. The class given is cell-based. The note with it: prostate cancer 22RV1 cells, 24 h treatment; for DC90: calculated from DC50 and Hillslope. How it is done:
(§1) The appropriate cell line, e.g., prostate cancer LNCaP, Vcap, or 22RV1 cell line, was treated with Compounds of the Disclosure as indicated. The treated cells were lysed with RIPA buffer. The AR level in the cell lysates was examined by western blotting and a specific AR antibody (ab194196, Abcam, Cambridge, Mass. 02139) with concentration of 1:20,000. GAPDH was used as a loading control.
(§2) Bands were quantified with ImageJ software. The relative numbers of each band obtained from normalization with its corresponding GAPDH level were compared with Prism 8 software. The DC50 values were produced from Prism 8, and the DC90 values were calculated with an equation=Bottom+(Top−Bottom)/(1+10^((Log EC50−X)*HillSlope) based on DC50 and Hillslope values.

Series [2] concerns the target T1, AR protein (Homo sapiens, UniProt P10275).
T1 construct: endogenous in cells; host or cells: VCaP
T1 sequence (P10275 1-920): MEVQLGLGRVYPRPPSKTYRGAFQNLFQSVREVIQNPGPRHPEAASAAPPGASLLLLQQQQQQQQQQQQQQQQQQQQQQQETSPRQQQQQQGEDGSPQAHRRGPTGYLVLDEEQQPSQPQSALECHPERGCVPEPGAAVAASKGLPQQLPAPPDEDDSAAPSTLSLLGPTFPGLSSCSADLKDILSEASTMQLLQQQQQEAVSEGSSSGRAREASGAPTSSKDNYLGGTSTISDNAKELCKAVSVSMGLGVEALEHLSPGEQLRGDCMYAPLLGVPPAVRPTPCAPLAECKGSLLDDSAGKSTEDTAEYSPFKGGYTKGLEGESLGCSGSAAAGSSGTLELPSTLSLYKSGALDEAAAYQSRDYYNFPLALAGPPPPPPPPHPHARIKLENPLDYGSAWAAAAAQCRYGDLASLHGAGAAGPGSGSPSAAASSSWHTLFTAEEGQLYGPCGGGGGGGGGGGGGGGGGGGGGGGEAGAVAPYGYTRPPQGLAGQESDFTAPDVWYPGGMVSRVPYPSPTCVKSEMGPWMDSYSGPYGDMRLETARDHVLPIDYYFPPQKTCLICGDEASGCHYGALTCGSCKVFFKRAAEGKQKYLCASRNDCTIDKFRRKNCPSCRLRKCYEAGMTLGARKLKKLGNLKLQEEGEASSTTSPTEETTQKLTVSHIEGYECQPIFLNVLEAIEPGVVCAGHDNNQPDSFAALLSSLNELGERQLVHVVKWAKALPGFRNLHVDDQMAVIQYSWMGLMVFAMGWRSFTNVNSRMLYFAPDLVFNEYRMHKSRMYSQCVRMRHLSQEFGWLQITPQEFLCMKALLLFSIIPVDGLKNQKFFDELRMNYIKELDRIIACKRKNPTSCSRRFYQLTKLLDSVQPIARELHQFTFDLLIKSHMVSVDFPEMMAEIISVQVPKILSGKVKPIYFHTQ
As to the kind of experiment: Western blotting analysis of AR protein levels in VCaP cells, band quantification, DC50/DC90. Type of series: cell-based. The note with it: for DC90: calculated from DC50 and Hillslope. The gist of the method:
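VCaP cells treated with compounds, lysed in RIPA and probed for AR by Western blot with GAPDH loading control. Band intensities normalised to GAPDH; DC50 from curve fit, DC90 calculated from DC50 and Hill slope via four-parameter equation.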

Series [3] deals with T2, AR protein (Homo sapiens, UniProt P10275, T878A).
T2 construct: endogenous in cells; host or cells: LNCaP
T2 sequence (P10275 1-920 T878A): T1 sequence (P10275 1-920) with T878A
As to the kind of experiment: Western blotting analysis of AR protein levels in LNCaP cells, band quantification, DC50/DC90. Type of series: cell-based. The note with it: prostate cancer LNCaP cells, 24 h treatment; for DC90: calculated from DC50 and Hillslope. The method, then:
as §1, §2

A short description of series [4]: Mouse PK studies after oral and IV dosing. The class given is in vivo. The note with it: for AUC(0-t) / clearance / half-life / Vd / Cmax / Tmax: in vivo; for clearance: read-out: IV Cl (converted); for Vd: read-out: IV VSS. The method, then:
The pharmacokinetics of representative Compounds of the Disclosure were determined after oral and IV dosing at the concentrations indicated in mouse (Table 7). […] The vehicles used in these studies are either (i) 10% PEG400+90% PBS (adjusted to pH to 8.0 by 0.5 N NaOH); or (ii) 100% PEG200.

Series [5] has as its system AR protein. As to the kind of experiment: AR degradation in MDA-MB-453 cells (Western blotting). Type of series: cell-based. The following applies: 24 hr treatment. How it is done:
as §1, §2
(Immunoblotting shows a protein as a band on a membrane.)

[6] abbreviates: prostate cancer Vcap cells, 24 h treatment.
[7] abbreviates: VCaP cells, Table 6, read-out: VCaP DC50.
Where [8] appears, read: iv, 1 mg/kg, IV, dose 1 mg/kg, read-out: IV AUC(0 − t).
Where [9] appears, read: iv, 1 mg/kg, IV, dose 1 mg/kg, read-out: IV T1/2 (converted).
[10] abbreviates: po, 3 mg/kg, PO, dose 3 mg/kg, read-out: PO AUC(0 − t).
The mark [11] stands for this setting: po, 3 mg/kg, PO, dose 3 mg/kg, read-out: PO T1/2 (converted).

Residue numbers refer to the chain shown, from its start. Read-outs that look alike come from different tables or passages of the source.

On to `C[C@H]1CC2(CCN(c3ccc(C(=O)N4CCN(C5CN(c6ccc7c(c6)C(=O)N(C6CCC(=O)NC6=O)C7=O)C5)CC4)cc3)CC2)CN1c1ccc(C#N)c(Cl)c1` (stereo partly drawn) [Cpd. No. 293, 2-chloro-4-((3S)-8-(4-(4-(1-(2-(2,6-dioxopiperidin-3-yl)-1,3-dioxoisoindolin-5-yl)azetidin-3-yl)piperazine-1-carbonyl)phenyl)-3-methyl-2,8-diazaspiro[4.5]decan-2-yl)benzonitrile], for which the DC50 with AR protein [1] was found to be 0.14 nM; at AR protein [2] (setting [6]), 0.031 nM; at AR protein [3], 0.3 nM. Further, the DC90 in the series on AR protein [1] is given as 0.23 nM; at AR protein [2] (setting [6]), 0.41 nM; on AR protein [3], 0.33 nM.
In series [4] (PO 5 mg/kg vs IV 2 mg/kg), `C[C@H]1CC2(CCN(c3ccc(C(=O)N4CCC(N5Cc6cc7c(cc6C5)C(=O)N(C5CCC(=O)NC5=O)C7=O)CC4)cc3)CC2)CN1c1ccc(C#N)c(Cl)c1` (stereo partly drawn) [Cpd. No. 307, 2-chloro-4-((3S)-8-(4-(4-(6-(2,6-dioxopiperidin-3-yl)-5,7-dioxo-3,5,6,7-tetrahydropyrrolo[3,4-f]isoindol-2(1H)-yl)piperidine-1-carbonyl)phenyl)-3-methyl-2,8-diazaspiro[4.5]decan-2-yl)benzonitrile] came in with an F of 67%. Further, the AUC(0-t) in series [4] (iv, 2 mg/kg, IV, dose 2 mg/kg, read-out: IV AUC(0 − t)) worked out at 50500 ng·h/mL; in series [4] (po, 5 mg/kg, PO, dose 5 mg/kg, read-out: PO AUC(0 − t)), 85200 ng·h/mL. In addition, in series [4] (iv, 2 mg/kg, IV, dose 2 mg/kg), the clearance was 0.667 mL/min/kg. In addition, the half-life in series [4] (iv, 2 mg/kg, IV, dose 2 mg/kg, read-out: IV T1/2 (converted)) is 260 min; in series [4] (po, 5 mg/kg, PO, dose 5 mg/kg, read-out: PO T1/2 (converted)) it was 264 min. Further, in series [4] (iv, 2 mg/kg, IV, dose 2 mg/kg), the Vd is 0.23 L/kg. In series [4] (po, 5 mg/kg), this molecule displayed a Cmax of 9120 ng/mL. For the same molecule, the Tmax in series [4] (po, 5 mg/kg) was determined as 2 h. Besides, the DC50 in the series on AR protein [1] was 0.9 nM; at AR protein [2] (prostate cancer Vcap cells, 24 h treatment, read-out: DC50), 0.046 nM; on AR protein [3] (read-out: DC50) it was 0.082 nM. Besides, the values for the DC90 with AR protein [1], at AR protein [2] (setting [6]) and on AR protein [3] were 3.1 nM, 0.199 nM and 0.11 nM, respectively.
Consider `C[C@H]1CC2(CCN(c3ccc(C(=O)N4CCN(C5CCN(c6ccc7c(c6)C(=O)N(C6CCC(=O)NC6=O)C7=O)CC5)CC4)cc3F)CC2)CN1c1ccc(C#N)c(Cl)c1` (stereo partly drawn) [Cpd. No. 522, 2-chloro-4-((3S)-8-(4-(4-(1-(2-(2,6-dioxopiperidin-3-yl)-1,3-dioxoisoindolin-5-yl)piperidin-4-yl)piperazine-1-carbonyl)-2-fluorophenyl)-3-methyl-2,8-diazaspiro[4.5]decan-2-yl)benzonitrile], for which, in series [4] (IV, dose 1 mg/kg), the “IV AUC(0 − t)” value turned out to be 1723 ng·h/mL, the “IV Cl” value was determined as 0.5 L/h/kg, the “IV T1/2” value is 8.6 h and the “IV VSS” value is on record as 4.6 L/kg. The molecule further came in with a F in series [4] (PO 3 mg/kg vs IV 1 mg/kg) of 33%. In series [4] (PO, dose 3 mg/kg), the “PO AUC(0 − t)” value is 1731 ng·h/mL, the “PO Cmax” value is given as 196 ng/mL, the “PO T1/2” value was 6.0 h and the “PO Tmax” value is reported as 2.0 h. The DC50 at AR protein [2] (setting [7]) is less than 1 nM.
`C[C@H]1CC2(CCN(c3ccc(C(=O)N4CCN(CC5CN(c6ccc7c(c6)C(=O)N(C6CCC(=O)NC6=O)C7=O)C5)CC4)cc3F)CC2)CN1c1ccc(C#N)c(Cl)c1` (stereo partly drawn) [Cpd. No. 528, 2-chloro-4-((3S)-8-(4-(4-((1-(2-(2,6-dioxopiperidin-3-yl)-1,3-dioxoisoindolin-5-yl)azetidin-3-yl)methyl)piperazine-1-carbonyl)-2-fluorophenyl)-3-methyl-2,8-diazaspiro[4.5]decan-2-yl)benzonitrile] yielded a F in series [4] (PO 3 mg/kg vs IV 1 mg/kg) of 33%. Besides, the AUC(0-t) in series [4] (setting [8]) amounted to 1710 ng·h/mL. Further, in series [4] (iv, 1 mg/kg, IV, dose 1 mg/kg), the clearance was 8.33 mL/min/kg and the Vd was found to be 5.7 L/kg. Further, the half-life in series [4] (setting [9]) was 534 min. Also, in series [4] (po, 3 mg/kg), the highest concentration (Cmax) amounted to 149 ng/mL and the Tmax stood at 1.7 h. Further, the area under the curve AUC(0-t) in series [4] (setting [10]) was found to be 1680 ng·h/mL. For the same molecule, in series [4] (setting [11]), the half-life was 528 min. In addition, the DC50 at AR protein [2] (setting [7]) is less than 1 nM.
Molecule `C[C@H]1CC2(CCN(c3ccc(C(=O)N4CCN(CC5CN(c6ccc7c(c6)C(=O)N(C6CCC(=O)NC6=O)C7=O)C5)CC4)c(F)c3)CC2)CN1c1ccc(C#N)c(Cl)c1` (stereo partly drawn) [Cpd. No. 529, 2-chloro-4-((3S)-8-(4-(4-((1-(2-(2,6-dioxopiperidin-3-yl)-1,3-dioxoisoindolin-5-yl)azetidin-3-yl)methyl)piperazine-1-carbonyl)-3-fluorophenyl)-3-methyl-2,8-diazaspiro[4.5]decan-2-yl)benzonitrile] came in with a F in series [4] (PO 3 mg/kg vs IV 1 mg/kg) of 45%. The AUC(0-t) in series [4] (setting [8]) came to 5130 ng·h/mL. In addition, in series [4] (iv, 1 mg/kg, IV, dose 1 mg/kg), the clearance was 3.33 mL/min/kg and the Vd came to 2.2 L/kg. Further, the half-life in series [4] (setting [9]) is 612 min. In series [4] (po, 3 mg/kg), the Cmax turned out to be 507 ng/mL and the Tmax is 3.3 h. Besides, the exposure AUC(0-t) in series [4] (setting [10]) was 6920 ng·h/mL. Also, in series [4] (setting [11]), the half-life is 510 min. For the same molecule, the DC50 on AR protein [2] (setting [7]) lay in the range of 1 to 10 nM.
Regarding `N#Cc1ccc(OC2CC3(C2)CN(C(=O)c2ccc(C4CCN(CC5CCN(c6ccc7c(c6)C(=O)N(C6CCC(=O)NC6=O)C7=O)CC5)CC4)cc2)C3)cc1Cl` (centres unmarked) [compound 480], the “degradation at 10 nM” value in the series on AR protein [5] (10 nM) was “B (>50% degradation but <90% (24 hr treatment))”. For the same molecule, in the series on AR protein [5] (100 nM), the “degradation at 100 nM” value was “A (>90% degradation (24 hr treatment))”.

In general, AUC(0-t) refers to the area under the concentration-time curve up to a stated or last time point. Broadly, the Cmax is the maximum level reached in the sampled fluid or tissue. The term Tmax denotes the time from dosing to the highest level.

These data come from patent publication US20220380368A1, “SPIROCYCLIC ANDROGEN RECEPTOR PROTEIN DEGRADERS” (THE REGENTS OF THE UNIVERSITY OF MICHIGAN, priority 2019, published 2022).
